Results reported in patent EP1935887A1, “Heterocyclic substituted carbonyl derivatives and their use as dopamine D3 receptor ligands” (Aventis Pharmaceuticals Inc., priority 2001, dated 2002).

These compounds were tested against T1, Cloned Human Dopamine D3 Receptors (Homo sapiens, UniProt P35462) (assay: [N-Methyl-3H]Spiroperidol binding to cloned human dopamine D3 receptors). Details: D3 Ki (nM).
T1 construct: expressed in transfected cells; membrane homogenate
Method in brief: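 Membranes from CHO cells stably expressing human D3 receptor, homogenised in 10% DMSO and stored at -80°C. Binding uses [N-methyl-3H]spiroperidol in Tris buffer, pH 7.7.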

T1 sequence (P35462 whole entry): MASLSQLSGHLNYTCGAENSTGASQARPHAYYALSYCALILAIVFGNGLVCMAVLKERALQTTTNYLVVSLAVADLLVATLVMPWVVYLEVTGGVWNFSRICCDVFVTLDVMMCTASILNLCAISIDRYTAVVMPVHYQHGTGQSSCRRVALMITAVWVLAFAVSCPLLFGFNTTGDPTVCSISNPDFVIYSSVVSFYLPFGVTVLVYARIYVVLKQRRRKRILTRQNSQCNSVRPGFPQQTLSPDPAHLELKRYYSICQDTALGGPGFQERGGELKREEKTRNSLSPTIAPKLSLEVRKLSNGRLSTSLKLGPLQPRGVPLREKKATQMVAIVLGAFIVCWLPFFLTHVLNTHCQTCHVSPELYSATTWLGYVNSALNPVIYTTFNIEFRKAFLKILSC

| Structure (SMILES) | Ki [nM] |
| --- | --- |
| Cn1nc(C2CCN(C[C@@H]3C[C@H]3C(=O)N[C@H]3CC[C@H](C)CC3)CC2)c2cc(C(F)(F)F)ccc21 [compound 833769] | 1.63 |
| O=C(NCCCn1ccnc1)[C@@H]1C[C@H]1CN1CCC(c2nn(-c3ccc(C(F)(F)F)cc3)c3ccccc23)CC1 [compound 831311] | 38.7 |
| O=C(NC1CCN(CCc2cccc(Cl)c2)CC1)C1CC1CN1CCC(c2noc3ccsc23)CC1 (stereo not shown) [832573FH] | 4.52 |
| CCC1CCC(NC(=O)C2CC2CN2CCC(c3nn(-c4ccc(C(F)(F)F)cc4)c4ccccc34)CC2)CC1 (stereo not shown) [compound 830133] | 176 |

Same assay, conditions: Table 2; unit inferred; read-out: d3Ki

| Structure (SMILES) | Ki [nM] |
| --- | --- |
| COc1ccc(N2CCN(C[C@@H]3C[C@H]3C(=O)N[C@H]3CC[C@H](C)CC3)CC2)c(OC)c1 [compound 817094] | 8.89 |
| CCC1CCC(NC(=O)C2CC2CN2CCCN(c3ccccn3)CC2)CC1 (stereo not shown) [compound 827800] | 19.7 |
| CCC1CCC(NC(=O)CCCN2CCN(c3csc4cc(F)ccc34)CC2Cc2ccccc2)CC1 (stereo not shown) [compound 827087] | 178 |
| CC[C@H]1CC[C@H](NC(=O)[C@@H]2C[C@H]2CN2CCN(c3ccc(C)cc3C)CC2)CC1 [compound 817091] | 3.98 |
| C[C@H](NC(=O)[C@@H]1C[C@H]1CN1CCN(c2csc3cc(C(F)(F)F)ccc23)CC1)c1ccccc1 [compound 826074] | 72.6 |
| CC[C@H]1CC[C@H](NC(=O)[C@@H]2C[C@H]2CN2CCCN(c3ncccc3Cl)CC2)CC1 [compound 827733] | 1.19 |
| CCN(C(=O)CCCN1CCN(c2csc3cc(F)ccc23)CC1CCCc1ccccc1)C1CCCCC1 (stereo not shown) [compound 827110] | 208 |
| O=C(NCc1cccnc1)[C@@H]1C[C@H]1CN1CCN(c2csc3cc(C(F)(F)F)ccc23)CC1 [compound 822203] | 30 |
| C[C@@]1(C(=O)NCc2ccco2)C[C@H]1CN1CCN(c2csc3cc(C(F)(F)F)ccc23)CC1 [compound 825897] | 140 |
| COc1ccc(N(C)C(=O)CCCCN2CCN(c3csc4cc(F)ccc34)CC2)cc1 [compound 822131] | 61 |
| CC[C@H]1CC[C@H](NC(=O)[C@@H]2C[C@H]2CN2CCN(c3cccc4ccccc34)CC2)CC1 [compound 817101] | 0.547 |
| O=C(NCc1ccccc1)[C@@H]1C[C@H]1CN1CCN(c2csc3cc(C(F)(F)F)ccc23)CC1 [compound 826068] | 54.6 |
| CC[C@H]1CC[C@H](NC(=O)[C@@H]2C[C@H]2CN2CCN(c3ncc(C(F)(F)F)cc3Cl)CC2)CC1 [compound 817093] | 5.97 |
| O=C(NCCN1CCOCC1)[C@@H]1C[C@H]1CN1CCN(c2csc3cc(C(F)(F)F)ccc23)CC1 [compound 826656] | 45 |
| CCC1CCC(NC(=O)C2CC2CN2CCN(c3ccc(C(F)(F)F)cc3)CC2)CC1 (stereo not shown) [817043A] | 18.6 |
| CC[C@H]1CC[C@H](NC(=O)[C@@H]2C[C@H]2CN2CCN(c3ccc(Cl)c(Cl)c3)CC2)CC1 [817090A] | 5.04 |
| COc1ccc(N(C)C(=O)CCCN2CCN(c3csc4cc(F)ccc34)CC2)cc1 [compound 822144] | 144 |
| CCC1CCC(NC(=O)C2CC2CN2CCN(c3ccc(C)cc3C)CC2)CC1 (stereo not shown) [817571A] | 11.5 |

Same assay, conditions: Table 2 part the 10th table; read-out: d3Ki

| Structure (SMILES) | Ki [nM] |
| --- | --- |
| O=C([C@@H]1C[C@H]1CN1CCN(c2csc3cc(C(F)(F)F)ccc23)CC1)N1CCC(N2CCCCC2)CC1 [compound 826910] | 17.5 |
| O=C([C@@H]1C[C@H]1CN1CCN(c2csc3cc(F)ccc23)CC1)N1CCCCC1 [compound 826676] | 2 |
| O=C([C@@H]1C[C@H]1CN1CCN(c2csc3cc(C(F)(F)F)ccc23)CC1)N1CCC(O)(c2ccccc2)CC1 [compound 826911] | 93 |
| CC1CCN(C(=O)CCCN2CCN(c3csc4cc(F)ccc34)CC2Cc2ccccc2)CC1 (stereo not shown) [compound 827095] | 37.8 |
| O=C(CCCN1CCN(c2csc3cc(F)ccc23)CC1Cc1ccccc1)N1CCCC1 (stereo not shown) [compound 827100] | 63.5 |
| COC[C@H]1CCCN1C(=O)[C@@H]1C[C@H]1CN1CCN(c2csc3cc(C(F)(F)F)ccc23)CC1 [compound 826923] | 141 |
| CC1CCCCN1C(=O)CCCN1CCN(c2csc3cc(C(F)(F)F)ccc23)CC1CCCc1ccccc1 (stereo not shown) [compound 827084] | 266 |
| O=C([C@@H]1CCCC[C@@H]1CN1CCN(c2csc3cc(C(F)(F)F)ccc23)CC1)N1CCCCC1 [compound 826119] | 219 |
| CC(=O)N[C@@H]1CCN(C(=O)[C@@H]2C[C@H]2CN2CCN(c3csc4cc(C(F)(F)F)ccc34)CC2)C1 [compound 826922] | 183 |
| O=C([C@@H]1C[C@H]1CN1CCN(c2csc3cc(C(F)(F)F)ccc23)CC1)N1CCC[C@H]1CNc1ccccc1 [compound 826916] | 157 |
| CC(=O)N(C)C1CCN(C(=O)[C@@H]2C[C@H]2CN2CCN(c3csc4cc(C(F)(F)F)ccc34)CC2)C1 (stereo partly shown) [compound 826921] | 183 |
| CC1CCCN1C(=O)[C@@H]1C[C@H]1CN1CCCN(c2csc3cc(F)ccc23)CC1 (stereo partly shown) [compound 826882] | 2.93 |
| N#CC1(c2ccccc2)CCN(C(=O)[C@@H]2C[C@H]2CN2CCN(c3csc4cc(F)ccc34)CC2)CC1 [compound 826674] | 48 |
| CC1CC(C)CN(C(=O)[C@@H]2C[C@H]2CN2CCCN(c3csc4cc(F)ccc34)CC2)C1 (stereo partly shown) [compound 826878] | 7.95 |
| CCOC(=O)C1CCN(C(=O)CCCN2CCCN(c3csc4cc(F)ccc34)CC2)CC1 [compound 826831] | 2.55 |
| O=C([C@@H]1C[C@H]1CN1CCCN(c2csc3cc(C(F)(F)F)ccc23)CC1)N1CCCC1 [compound 826683] | 3.7 |
| NC(=O)C1CCCN(C(=O)[C@@H]2C[C@H]2CN2CCN(c3csc4cc(C(F)(F)F)ccc34)CC2)C1 (stereo partly shown) [compound 826904] | 39.4 |

Same assay, conditions: d3Ki, Table 2; unit inferred

| Structure (SMILES) | Ki [nM] |
| --- | --- |
| CC1CCC(NC(=O)C2CC2CN2CCN(c3noc4ccsc34)CC2)CC1 (stereo not shown) [compound 818427] | 6.07 |

Same assay, conditions: d3Ki, Table 2 part the 10th table

| Structure (SMILES) | Ki [nM] |
| --- | --- |
| O=C([C@@H]1C[C@H]1CN1CCN(c2csc3cc(C(F)(F)F)ccc23)CC1)N1CCC(N2CCCC2)CC1 [compound 826664] | 9.4 |

Same assay, conditions: read-out: D3 Ki

| Structure (SMILES) | Ki [nM] |
| --- | --- |
| O=C(NCCCN1CCCCC1)[C@@H]1C[C@H]1CN1CCN(c2nn(-c3ccc(C(F)(F)F)cc3)c3ccsc23)CC1 [A002201942] | 30.2 |
| CN(CCc1ccccn1)C(=O)C1CC1CN1CCC(c2noc3ccsc23)CC1 (stereo not shown) [compound 829593] | 350 |
| COc1ccc2c(CCNC(=O)[C@@H]3C[C@H]3CN3CCC(c4noc5ccsc45)CC3)c[nH]c2c1 [compound 831276] | 3.85 |
| O=C(NCCCn1ccnc1)[C@@H]1C[C@H]1CN1CCN(c2nn(-c3ccc(F)cc3)c3ccccc23)CC1 [compound 833823] | 0.637 |
| Cn1nc(N2CCN(C[C@@H]3C[C@H]3C(=O)NCCCn3ccnc3)CC2)c2ccccc21 [compound 833822] | 0.64 |
| O=C([C@@H]1C[C@H]1CN1CCC(c2noc3ccsc23)CC1)N1CCOCC1 [compound 829461] | 306 |
| O=C(NCCCn1cccn1)[C@@H]1C[C@H]1CN1CCC(c2noc3ccsc23)CC1 [compound 831273] | 68.6 |
| O=C(NCC1CCCNC1)[C@@H]1C[C@H]1CN1CCC(c2noc3ccsc23)CC1 (mixture of isomers) [compound 833385] | 3.31 |
| CC[C@H]1CC[C@H](NC(=O)[C@@H]2C[C@H]2CN2CCN(c3cnccn3)CC2)CC1 [compound 827226] | 16.1 |

Same assay, conditions: read-out: d3Ki

| Structure (SMILES) | Ki [nM] |
| --- | --- |
| Cc1ccccc1N1CCN(CC2CC2C(=O)NC2CCC(C)CC2)CC1 (stereo not shown) [compound 817478] | 1.46 |
| O=C([C@@H]1C[C@H]1CN1CCCN(c2csc3cc(F)ccc23)CC1)N(CCO)C1CCCCC1 [compound 826870] | 7.4 |
| O=C(NC1CC1)[C@@H]1CCC[C@H]1N1CCN(c2csc3cc(F)ccc23)CC1 [compound 825827] | 54.8 |
| CC[C@H]1CC[C@H](NC(=O)[C@@H]2C[C@H]2CN2CCN(c3cccc(OC)c3)CC2)CC1 [compound 827234] | 3.15 |
| O=C(NCc1ccccn1)[C@@H]1CCCC[C@H]1CN1CCN(c2csc3cc(C(F)(F)F)ccc23)CC1 [compound 826120] | 487 |
| CCC1CCC(NC(=O)C2CC2CN2CCN(c3ccccc3C)CC2)CC1 (stereo not shown) [compound 818675] | 0.711 |
| COc1cccc(N2CCN(C[C@@H]3C[C@H]3C(=O)N[C@H]3CC[C@H](C)CC3)CC2)c1 [compound 827195] | 8.18 |
| CC[C@H]1CC[C@H](NC(=O)[C@@H]2C[C@H]2CN2CCN(c3ncc(C(F)(F)F)cc3Cl)CC2)CC1 [compound 817480] | 3.07 |
| CN(C)c1ccc(CNC(=O)[C@@H]2CCC[C@H]2N2CCN(c3csc4cc(F)ccc34)CC2)cc1 [compound 825828] | 21.8 |
| O=C(NC1CCCC1)[C@@H]1C[C@H]1CN1CCN(c2csc3cc(F)ccc23)CC1 [compound 826670] | 4.2 |
| COC(=O)[C@H]1CC[C@H](NC(=O)[C@@H]2C[C@H]2CN2CCN(c3csc4cc(F)ccc34)CC2)CC1 [compound 826666] | 6.3 |
| C[C@H]1CC[C@H](NC(=O)[C@@H]2C[C@H]2CN2CCN(c3ccccc3)CC2)CC1 [compound 827191] | 0.724 |
| CCOC(=O)[C@H]1CCCC[C@@H]1NC(=O)[C@@H]1C[C@H]1CN1CCN(c2csc3cc(C(F)(F)F)ccc23)CC1 [compound 826898] | 50.5 |
| C[C@H]1CC[C@H](NC(=O)[C@@H]2C[C@H]2CN2CCN(c3ccco3)CC2)CC1 [compound 827189] | 126 |
| CC[C@H]1CC[C@H](NC(=O)[C@@H]2C[C@H]2CN2CCN(c3cnccn3)CC2)CC1 [compound 827226] | 16.1 |
| CC[C@H]1CC[C@H](NC(=O)[C@@H]2C[C@H]2CN2CCN(c3cccc(C)c3)CC2)CC1 [compound 827219] | 2.63 |
| O=C(Nc1cccnc1)[C@@H]1CCCC[C@H]1CN1CCN(c2csc3cc(C(F)(F)F)ccc23)CC1 [compound 826100] | 193 |
| Cc1cccc(CNC(=O)[C@@H]2CCC[C@H]2N2CCN(c3csc4cc(F)ccc34)CC2)c1 [compound 825900] | 22.4 |
| CC(NC(=O)[C@@H]1CCC[C@H]1N1CCN(c2csc3cc(F)ccc23)CC1)c1ccccc1 (stereo partly shown) [compound 826058] | 45.2 |
| O=C(N[C@H]1CC[C@H](O)CC1)[C@@H]1C[C@H]1CN1CCN(c2csc3cc(C(F)(F)F)ccc23)CC1 [compound 816592] | 11 |
